Measurements reported in ChEMBL document CHEMBL3217540, “New 3-amidinophenylalanine-derived inhibitors of matriptase” (Medchemcomm, 2012).

What was measured:
Homo sapiens [1] = species: Homo sapiens; test: Selectivity ratio of Ki for recombinant human airway trypsin-like protease to Ki for matriptase (unknown origin)
Coagulation factor X = Coagulation factor X (Homo sapiens, UniProt P00742); test: Inhibition of human factor 10a using CH3OCO-D-Cha-Gly-Arg-pNA as substrate
HEK293 = test: Selectivity ratio of Ki for matriptase-2 (unknown origin) expressed in HEK293 cells to Ki for matriptase (unknown origin); format: cell-based; conditions: Homo sapiens
Homo sapiens [2] = species: Homo sapiens; test: Selectivity ratio of Ki for human uPA to Ki for matriptase (unknown origin)
[3] = biological target: T1, Transmembrane protease serine 6 (Homo sapiens, UniProt Q8IU80); test: Inhibition of matriptase-2 (unknown origin) expressed in HEK293 cells using ln-Ala-Arg-a-Arg-para-nitroanilide as substrate by UV-vis spectrophotometry; format: cell-based
T1 sequence (Q8IU80 whole entry): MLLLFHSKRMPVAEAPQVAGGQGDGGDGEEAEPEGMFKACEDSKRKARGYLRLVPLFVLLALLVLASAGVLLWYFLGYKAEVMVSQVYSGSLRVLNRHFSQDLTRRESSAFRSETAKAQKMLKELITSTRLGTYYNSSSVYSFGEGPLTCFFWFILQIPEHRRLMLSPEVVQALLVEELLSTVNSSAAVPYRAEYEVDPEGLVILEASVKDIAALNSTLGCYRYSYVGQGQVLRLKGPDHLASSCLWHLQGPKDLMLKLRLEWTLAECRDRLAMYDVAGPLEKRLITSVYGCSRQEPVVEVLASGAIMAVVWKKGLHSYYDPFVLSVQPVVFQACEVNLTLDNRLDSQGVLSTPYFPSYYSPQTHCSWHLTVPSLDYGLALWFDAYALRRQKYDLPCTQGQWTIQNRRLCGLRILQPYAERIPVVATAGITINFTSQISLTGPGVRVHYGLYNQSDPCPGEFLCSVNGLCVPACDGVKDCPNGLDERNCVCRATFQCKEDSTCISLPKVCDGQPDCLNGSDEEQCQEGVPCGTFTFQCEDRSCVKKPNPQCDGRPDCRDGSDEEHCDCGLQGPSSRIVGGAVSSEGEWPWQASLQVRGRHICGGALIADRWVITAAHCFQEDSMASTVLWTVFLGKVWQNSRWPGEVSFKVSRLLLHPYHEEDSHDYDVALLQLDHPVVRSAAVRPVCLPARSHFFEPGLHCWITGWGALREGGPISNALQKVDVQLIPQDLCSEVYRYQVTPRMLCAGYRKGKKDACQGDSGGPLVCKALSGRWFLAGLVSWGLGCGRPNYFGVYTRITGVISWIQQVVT

[4] = biological target: T2, Suppressor of tumorigenicity 14 protein (Homo sapiens, UniProt Q9Y5Y6); test: Inhibition of matriptase (unknown origin) using MeSO2-D-Cha-Gly-Arg-pNA as substrate
T2 sequence (Q9Y5Y6 whole entry): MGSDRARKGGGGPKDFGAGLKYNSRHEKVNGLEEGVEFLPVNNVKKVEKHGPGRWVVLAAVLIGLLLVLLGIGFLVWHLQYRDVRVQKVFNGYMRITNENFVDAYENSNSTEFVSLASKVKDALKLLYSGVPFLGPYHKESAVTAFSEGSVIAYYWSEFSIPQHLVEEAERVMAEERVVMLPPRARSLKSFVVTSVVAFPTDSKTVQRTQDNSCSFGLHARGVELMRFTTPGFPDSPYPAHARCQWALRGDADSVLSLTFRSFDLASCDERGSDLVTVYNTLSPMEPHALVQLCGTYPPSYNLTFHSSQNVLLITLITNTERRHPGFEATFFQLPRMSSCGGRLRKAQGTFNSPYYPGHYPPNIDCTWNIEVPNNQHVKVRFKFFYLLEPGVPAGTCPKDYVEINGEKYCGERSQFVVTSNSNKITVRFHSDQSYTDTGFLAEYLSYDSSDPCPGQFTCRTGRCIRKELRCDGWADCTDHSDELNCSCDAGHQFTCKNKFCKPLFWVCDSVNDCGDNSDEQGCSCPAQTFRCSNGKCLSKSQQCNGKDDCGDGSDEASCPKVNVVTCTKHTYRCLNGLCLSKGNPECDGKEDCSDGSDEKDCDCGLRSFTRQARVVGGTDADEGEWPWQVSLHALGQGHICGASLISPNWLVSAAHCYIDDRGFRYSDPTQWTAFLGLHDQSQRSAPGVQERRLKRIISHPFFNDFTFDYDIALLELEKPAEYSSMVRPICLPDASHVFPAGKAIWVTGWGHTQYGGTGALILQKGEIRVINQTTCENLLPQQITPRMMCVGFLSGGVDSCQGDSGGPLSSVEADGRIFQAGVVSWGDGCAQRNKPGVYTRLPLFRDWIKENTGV

Prothrombin = Prothrombin (Bos taurus, UniProt P00735); test: Inhibition of bovine thrombin using MeSO2-D-Cha-Gly-Arg-pNA as substrate

Chain of Coagulation factor X (P00742 41-179 limits assumed): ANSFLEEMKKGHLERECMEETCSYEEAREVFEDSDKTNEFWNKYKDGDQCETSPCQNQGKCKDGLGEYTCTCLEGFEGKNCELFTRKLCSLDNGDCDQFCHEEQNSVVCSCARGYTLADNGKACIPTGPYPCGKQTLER
Chain of Coagulation factor X (P00742 235-488 limits assumed): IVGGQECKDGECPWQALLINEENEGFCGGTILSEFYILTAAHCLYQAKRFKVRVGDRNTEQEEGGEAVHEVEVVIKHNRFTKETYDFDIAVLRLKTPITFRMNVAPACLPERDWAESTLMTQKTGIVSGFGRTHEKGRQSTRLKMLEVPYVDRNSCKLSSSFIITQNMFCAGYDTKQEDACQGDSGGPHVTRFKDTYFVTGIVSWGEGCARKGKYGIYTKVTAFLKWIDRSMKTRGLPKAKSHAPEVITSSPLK

Ratio Ki (Homo sapiens [1]): 20
Ki (Coagulation factor X): 110 nM
Ratio Ki (Homo sapiens [2]): 20
Ki [3]: 310 nM
Ki [4]: 1 nM
Ki (Prothrombin): 30 nM
SMILES: COc1ccc(-c2cccc(S(=O)(=O)N[C@@H](Cc3cccc(C(=N)N)c3)C(=O)N3CCC(CCN)CC3)c2)c(OC)c1
Ratio Ki (HEK293): 20
